The record followed here is patent US12728168B2, “Anti-CEA antibody-exatecan analog conjugate and pharmaceutical use thereof” (JIANGSU HENGRUI MEDICINE CO., LTD., priority 2019, dated 2026).

The test system of assay [1] is SK-BR-3 tumor cells (human breast cancer cells). The assay is described as follows: Inhibition of in vitro proliferation of SK-BR-3 cells (CTG). It is filed as cell-based. Particulars: 6 days of culture. Here is the method:
(§1) This experiment was intended to test the inhibitory activity of the pharmaceutical compounds of the present disclosure against the in vitro proliferation of U87MG cells (Cell Bank, Chinese Academy of Sciences, Cat #TCHu138) and SK-BR-3 tumor cells (human breast cancer cells, ATCC, Cat #HTB-30). The cells were treated in vitro with a compound at different concentrations. After 6 days of culture, the proliferation of cells was tested using CTG (CellTiter-Glo® Luminescent Cell Viability Assay, Promega, Cat #G7573) reagents, and the in vitro activity of the compound was evaluated according to IC50 value.
(§2) The test for the inhibition of the in vitro proliferation of U87MG cells was taken as an example to illustrate the method of the present invention for testing the inhibitory activity of the compounds of the present invention against the in vitro proliferation of tumor cells. […]
(§3) Different test samples at 100 nM or 5 μM (100 μL) were added to the first column of a 96-well plate, and 100 μL of PBS was added to each well of the second column through the eleventh column. […] Plate reading: the 96-well cell culture plate was taken out and tested in a microplate reader (BMG labtech, PHERAstar FS) for chemiluminescence. […]
(§4) Data were processed and analyzed using Microsoft Excel and Graphpad Prism 5.

For another assay, the system named is U87MG cells. In words: Inhibition of in vitro proliferation of U87MG cells (CTG). It is filed as cell-based. Particulars: Homo sapiens, U-87 MG, 6 days of culture, read-out: IC50 (nM) U87. Here is the method:
as §1, §2, §3, §4

Assay [2] deals with T1, human CEACAM1 expressed on CHO cell surface (CEACAM1-CHO) (Homo sapiens, UniProt P13688).
T1 construct: expressed in transfected cells; host or cells: CHO cells
T1 sequence (P13688 35-526): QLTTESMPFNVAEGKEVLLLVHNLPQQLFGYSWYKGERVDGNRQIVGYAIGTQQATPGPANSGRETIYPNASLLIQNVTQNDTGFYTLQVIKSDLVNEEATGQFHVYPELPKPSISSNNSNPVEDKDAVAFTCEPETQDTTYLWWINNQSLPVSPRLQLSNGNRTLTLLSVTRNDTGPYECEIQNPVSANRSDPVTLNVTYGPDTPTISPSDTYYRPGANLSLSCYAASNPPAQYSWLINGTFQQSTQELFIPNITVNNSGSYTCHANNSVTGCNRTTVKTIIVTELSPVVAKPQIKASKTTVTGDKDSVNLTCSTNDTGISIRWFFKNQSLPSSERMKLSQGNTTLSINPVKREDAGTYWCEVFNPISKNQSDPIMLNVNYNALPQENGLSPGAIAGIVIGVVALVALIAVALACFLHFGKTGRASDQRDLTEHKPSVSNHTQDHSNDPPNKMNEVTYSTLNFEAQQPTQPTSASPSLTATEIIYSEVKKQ
The assay is described as follows: FACS binding assay, CEACAM1-CHO cells. Here is the method: In order to detect the binding of the antibody to the CEA protein on the cell surface, the binding activity of the antibody was determined by FACS using cells expressing CEA on the cell surface. Cells were harvested and centrifuged at 400 g at 4° C. for 5 min. Pre-cooled PBS containing FBS at final concentration 10% was added, and the mixture was centrifuged at 400 g at 4° C. for 5 min; the procedures were repeated twice. The cells were seeded into a 96-well plate at 10^5 cells/well, and 100 μL of gradient diluted antibody solution was added to each well. The plate was incubated at 4° C. for 60 min and centrifuged, and the supernatant was removed. 250 μL of pre-cooled PBS containing FBS at final concentration 10% was added to each well to resuspend the cells, and the suspension was centrifuged at 400 g at 4° C. for 5 min, followed by the removal of the supernatant; the procedures were repeated twice. 50 μL of 1:200 diluted secondary antibody Alexa Fluor@488 goat anti-human IgG (H+L) (Lifetechologies, Cat #A11013) was added. The plate was incubated in the dark at 4° C. for 45 min and centrifuged, and the supernatant was removed. 250 μL of pre-cooled PBS containing FBS at final concentration 10% was added to each cell to resuspend the cells, and the suspension was centrifuged at 400 g at 4° C. for 5 min; the procedures were repeated twice. 100 μL of pre-cooled PBS was added to each well to resuspend the cells. The plate was analyzed by a flow cytometer (BD, FACSverse) for fluorescence signal values. Higher values indicate higher binding activity of the antibody to the protein on the cell surface. Binding curves were plotted using PRISM analysis software based on the assay results, and the EC50 values for the binding activity of the antibody to the cell surface proteins human CEA (MKN45 human gastric cancer cells, Nanjing Kebai Biotechnology Co., Ltd., Cat #CBP60488), cynoCEA-CHO and CEACAM1-CHO were obtained by fitting.

The IC50 is the midpoint of a concentration-inhibition curve. For `CC[C@@]1(O)C(=O)OCc2c1cc1n(c2=O)Cc2c-1nc1cc(F)c(C)c3c1c2[C@@H](NC(=O)[C@@H](O)C1CC1)CC3` [1-A, (S)-2-cyclopropyl-N-((1S,9S)-9-ethyl-5-fluoro-9-hydroxy-4-methyl-10,13-dioxo-2,3,9,10,13,15-hexahydro-1H,12H-benzo[de]pyrano[3′,4′:6,7]indolizino[1,2-b]quinolin-1-yl)-2-hydroxyacetamide], the results for the IC50 (in assay [1]; in the assay with U87MG cells) were 8.11 nM and 2.31 nM, respectively. Consider “Sanofi: the antibody in SAR-408701 (Sanofi), heavy chain SEQ ID NO: 88, light chain SEQ ID NO: 89; positive control [reference compound]”, for which the “EC50 (nM) CEACAM1-CHO” value in assay [2] (Table 17, humanized antibodies and controls) is given as “No binding”.

Consider `CC[C@@]1(O)C(=O)OCc2c1cc1n(c2=O)Cc2c-1nc1cc(F)c(C)c3c1c2[C@@H](NC(=O)[C@H](O)C1CC1)CC3` [1-B, (R)-2-cyclopropyl-N-((1S,9S)-9-ethyl-5-fluoro-9-hydroxy-4-methyl-10,13-dioxo-2,3,9,10,13,15-hexahydro-1H,12H-benzo[de]pyrano[3′,4′:6,7]indolizino[1,2-b]quinolin-1-yl)-2-hydroxyacetamide], for which the figures for the IC50 (in assay [1]; in the assay with U87MG cells) were 0.33 nM and 0.86 nM, respectively.

B1: mAb103: murine anti-CEA monoclonal antibody, VH SEQ ID NO: 13, VL SEQ ID NO: 14 (antibody, V domains shown)
VH: QIQLVQSGPELKKPGETVKISCKASGYTFTTYGVIWVKQAPGKGLKWMGWINTYSGVPTYADDFKGRFAFSLETSASTAFLQINNLKNEDTATYFCARKKTLTTVTPWFAYWGQGTLVTVSA
VL: DLVVTQSSSASFSLGASAKLTCTLSSQHSTYTIEWYQQQPLKPPKYVMELKKDGSHSTGDGIPDRFSGSSSGADRYLTISNIQPEDEAIYICGVGNTIKEQFVYVFGGGTKVTVL
Turning to B1, in assay [2] (Table 1, murine antibodies), the “EC50 (nM) CEACAM1-CHO” value was “No binding”.

B2: mAb67: murine anti-CEA monoclonal antibody, VH SEQ ID NO: 11, VL SEQ ID NO: 12 (antibody, V domains shown)
VH: EVQLQQSGPELVKPGASVKIYCKASGYTFTDYHMNWVKQSHGKSLEWIGDINPDIGGTSYNQNFKGKATLTVDKSSSTAYMELRSLTSEDSAVYYCSRWDFDSFANWGQGTLVTVSA
VL: DIVMTQSPASLAMSLGKRATISCRASESVSIIGTNLIHWYQQKPGQPPKLLIYHASNLETGVPARFSGSGSGADFTLTIDPVEGDDVALYYCLQSRKIPYTFGGGTKMEIK
As to B2, the “EC50 (nM) CEACAM1-CHO” value in assay [2] (Table 1, murine antibodies) is given as “No binding”.

B3: mAb63: murine anti-CEA monoclonal antibody, VH SEQ ID NO: 9, VL SEQ ID NO: 10 (antibody, V domains shown)
VH: EVQLQQSGPELVKPGASVKMSCKASGYTFTDFYMNWVRQSHGKSLEWIGDIFPKNGNTDYNRKFKDKATLTVDKSSNTVYMEFRSLTLEDSAIYFCARSGYGNYVFDYWGQGTIFTVSS
VL: DVQMTQTPSALSASLGDRVTISCRTSQDINIYLNWYQQKPDGTVKLLIYYRSGLLSGVPSRFSGSGSGTDYSLTISNLEPEDIATYFCQQGNTLPPTFGGGTKLEIK
On to B3, for which the “EC50 (nM) CEACAM1-CHO” value in assay [2] (Table 1, murine antibodies) is reported as “No binding”.
